Test results published in publication PMC5748833, “Synthesis and Biological Evaluation of Novel Hybrid Molecules Containing Purine, Coumarin and Isoxazoline or Isoxazole Moieties” (The Open Medicinal Chemistry Journal, 2017).
“And” between values parts separate entries of the source, which are not always exact repeats. Equal entries are not always repeated.

Experiments:
[1] = Inhibition of linoleic acid lipid peroxidation (AAPH); conditions: 100 μM compound, 37°C
Experimental: 2.2.2.3 Inhibition of linoleic acid lipid peroxidation
Production of conjugated diene hydroperoxide by oxidation of linoleic acid sodium salt in an aqueous solution was monitored at 234 nm. 2,2’-Azobis(2-amidinopropane) dihydrochloride (AAPH) was used as a free radical initiator. 10 μl of the 16 mM linoleic acid sodium salt solution was added to the UV cuvette containing 0.93 ml of 0.05 M phosphate buffer, pH 7.4 prethermostated at 37°C. The oxidation reaction was initiated at 37°C under air by the addition of 50 μl of 40 mM AAPH solution. Oxidation was carried out in the presence of 10 μl of the examined compounds (stock solution in DMSO). In the assay without antioxidant, lipid oxidation was measured in the presence of the same level of DMSO. The rate of oxidation at 37°C was monitored by recording the increase in absorption at 234 nm caused by conjugated diene hydroperoxides (Table 5). Trolox was used as a standard.
Anti-lipid peroxidation activity. The water-soluble azo compound AAPH has been extensively used as a clean and controllable source of thermally produced alkyl peroxyl free radicals, through spontaneous thermal decomposition. […] In the AAPH assay, the highly reactive alkylperoxyl radicals are intercepted mainly by a hydrogen atom transfer (HAT) from the antioxidant.

rat monoamine oxidase A = target: T1, rat monoamine oxidase A (Rattus norvegicus, UniProt P21396); test: Inhibition of MAO-A (spectrofluorimetric method); type: biochemical; conditions: 10 μM compound
T1 construct: from tissue
T1 sequence (P21396 1-526): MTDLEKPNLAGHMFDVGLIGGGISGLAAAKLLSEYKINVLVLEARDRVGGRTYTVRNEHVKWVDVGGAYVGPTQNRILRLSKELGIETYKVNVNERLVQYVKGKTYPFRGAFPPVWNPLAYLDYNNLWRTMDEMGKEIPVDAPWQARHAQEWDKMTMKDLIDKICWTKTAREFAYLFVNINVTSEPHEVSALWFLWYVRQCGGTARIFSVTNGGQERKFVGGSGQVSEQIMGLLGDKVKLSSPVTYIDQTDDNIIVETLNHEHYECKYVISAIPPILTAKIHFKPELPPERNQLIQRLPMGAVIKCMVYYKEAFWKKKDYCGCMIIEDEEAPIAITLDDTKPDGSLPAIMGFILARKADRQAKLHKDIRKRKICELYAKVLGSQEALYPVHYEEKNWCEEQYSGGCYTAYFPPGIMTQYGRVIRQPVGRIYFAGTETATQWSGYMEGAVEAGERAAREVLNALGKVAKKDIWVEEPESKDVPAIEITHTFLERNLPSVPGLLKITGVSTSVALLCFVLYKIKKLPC
Description: (§1) 2.2.2.6 Inhibition Study on MAOs in vitro
(§2) Inhibition of rat monoamine oxidase A and B was studied by means of a spectrofluorimetric method as previously detailed.

[2] = target: T2, electric eel acetylcholinesterase (eeAChE) (Electrophorus electricus, UniProt O42275); test: biochemical; type: biochemical; conditions: for inhibition at 10 µM: read-out: eeAChE % inhibn. @ 10 μΜ; for IC50: read-out: eeAChE IC50 μΜ
T2 construct: purchased Sigma
Description: (§3) 2.2.2.5 Inhibition Study on ChEs in vitro
(§4) In vitro inhibition of electric eel acetylcholinesterase (eeAChE; 463 U/mg, Sigma) and equine serum butyrylcholinesterase (esBChE; 13 U/mg, Sigma) was investigated with a 96-well plate procedure based on the classical Ellman’s spectrophotometric test, as already described.

[3] = target: T3, equine serum butyrylcholinesterase (esBChE) (Equus caballus, UniProt P81908); test: Inhibition of esBChE (Ellman's test); type: biochemical; conditions: for inhibition at 10 µM: read-out: esBChE % inhibn. @ 10 μΜ
T3 construct: purchased Sigma; host or cells: equine serum
Description: as §3, §4

soybean lipoxygenase = target: T4, soybean lipoxygenase (Glycine max, UniProt P08170); test: Soybean lipoxygenase inhibition in vitro; type: biochemical; conditions: for %LOX @ 100μΜ: 100 μM compound
T4 construct: purchased Sigma Chemical, Co. (St. Louis, MO, USA)
T4 sequence (P08170 1-839): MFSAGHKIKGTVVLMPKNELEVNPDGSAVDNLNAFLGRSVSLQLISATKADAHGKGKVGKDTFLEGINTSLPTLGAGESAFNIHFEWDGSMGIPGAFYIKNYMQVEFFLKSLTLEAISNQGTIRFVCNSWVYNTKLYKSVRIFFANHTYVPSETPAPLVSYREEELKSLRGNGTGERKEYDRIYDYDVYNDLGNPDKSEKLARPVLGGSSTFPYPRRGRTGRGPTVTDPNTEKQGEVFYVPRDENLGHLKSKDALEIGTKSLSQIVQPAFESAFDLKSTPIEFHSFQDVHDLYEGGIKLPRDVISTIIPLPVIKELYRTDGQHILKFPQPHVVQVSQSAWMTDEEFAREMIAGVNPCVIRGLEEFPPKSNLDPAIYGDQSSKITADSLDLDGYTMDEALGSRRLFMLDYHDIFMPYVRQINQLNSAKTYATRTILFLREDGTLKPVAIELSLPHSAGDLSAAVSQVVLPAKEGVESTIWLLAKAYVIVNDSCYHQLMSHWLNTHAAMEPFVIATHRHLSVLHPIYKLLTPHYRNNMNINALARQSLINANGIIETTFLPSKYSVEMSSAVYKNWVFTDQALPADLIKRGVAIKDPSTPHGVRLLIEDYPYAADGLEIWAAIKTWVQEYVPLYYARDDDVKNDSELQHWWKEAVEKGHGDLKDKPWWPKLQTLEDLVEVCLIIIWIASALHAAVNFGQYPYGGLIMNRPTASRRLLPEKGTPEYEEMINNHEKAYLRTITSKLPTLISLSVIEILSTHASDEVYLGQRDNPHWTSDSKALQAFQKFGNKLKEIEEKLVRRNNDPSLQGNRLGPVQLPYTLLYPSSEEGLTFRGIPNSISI
Experimental: 2.2.2.4 Soybean lipoxygenase inhibition study in vitro [14]
In vitro study was evaluated as reported previously. The tested compounds dissolved in ethanol were incubated at room temperature with sodium linoleate (0.1 mM) and 0.2 ml of enzyme solution (1/9 x10^-4 w/v in saline). […] Several concentrations were used for the determination of IC50 values (Table 5).
LO is the key enzyme in leukotriene biosynthesis. Leukotrienes derived from the biotransformation of arachidonic acid catalyzed by 5-lipoxygenase (5-LO), are important inflammatory mediators implicated in several diseases. LOs play a role in membrane lipid peroxidation by forming hydroperoxides in the lipid bilayer. […] Most of the LO inhibitors are antioxidants or free radical scavengers, since lipoxygenation occurs via a carbon-centered radical. The evaluation of the novel coumarin hybrids against soybean lipoxygenase LO was accomplished by the UV-based enzyme assay.

rat monoamine oxidase B = target: T5, rat monoamine oxidase B (Rattus norvegicus, UniProt P19643); test: Inhibition of MAO-B (spectrofluorimetric method); type: biochemical; conditions: 10 μM compound
T5 construct: from tissue
T5 sequence (P19643 1-520): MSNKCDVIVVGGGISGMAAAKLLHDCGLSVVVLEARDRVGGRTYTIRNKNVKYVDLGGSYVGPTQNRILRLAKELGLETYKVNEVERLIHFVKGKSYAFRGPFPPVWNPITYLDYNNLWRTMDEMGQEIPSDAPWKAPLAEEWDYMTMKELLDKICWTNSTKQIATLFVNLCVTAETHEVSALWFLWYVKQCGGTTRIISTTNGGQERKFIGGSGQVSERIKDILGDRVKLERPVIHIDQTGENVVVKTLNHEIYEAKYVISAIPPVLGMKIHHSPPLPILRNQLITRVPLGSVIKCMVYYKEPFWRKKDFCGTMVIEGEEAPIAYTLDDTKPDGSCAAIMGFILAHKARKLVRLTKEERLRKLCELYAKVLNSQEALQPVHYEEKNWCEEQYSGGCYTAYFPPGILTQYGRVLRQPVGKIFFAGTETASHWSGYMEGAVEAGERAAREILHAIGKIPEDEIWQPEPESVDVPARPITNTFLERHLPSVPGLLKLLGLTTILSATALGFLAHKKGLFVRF
Description: as §1, §2

[4] = Reducing activity of the stable radical DPPH; conditions: 100 μM compound, after 20 min
Experimental: 2.2.2.1 Determination of the reducing activity of the stable radical 1, 1-diphenyl-picrylhydrazyl (DPPH)
To a solution of DPPH (100μM) in absolute ethanol an equal volume of the compounds dissolved in ethanol was added. As control solution ethanol was used. The concentration of the solutions of the compounds was 100μM. After 20 and 60 min at room temperature the absorbance was recorded at 517 nm (Table 5). NDGA was used as a standard.
The compounds were studied for their antioxidant activity by the use of the stable 2,2-diphenyl-1-picrylhydrazyl radical (DPPH) at concentration 0.1mM after 20 min. […] This purple colour generally disappears in the presence of an antioxidant. The reduction of absorbance is a measure of the free DPPH due to the action of the antioxidant. The antioxidant activity was expressed as the RA% (Reducing Activity). […] Within the group of derivatives 4 the presence of the morpholinyl or piperidinyl rings at position A as well as the carbonyl group at position B, hinder the interaction of the compounds to the free stable radical DPPH.

T2 sequence (O42275 24-633): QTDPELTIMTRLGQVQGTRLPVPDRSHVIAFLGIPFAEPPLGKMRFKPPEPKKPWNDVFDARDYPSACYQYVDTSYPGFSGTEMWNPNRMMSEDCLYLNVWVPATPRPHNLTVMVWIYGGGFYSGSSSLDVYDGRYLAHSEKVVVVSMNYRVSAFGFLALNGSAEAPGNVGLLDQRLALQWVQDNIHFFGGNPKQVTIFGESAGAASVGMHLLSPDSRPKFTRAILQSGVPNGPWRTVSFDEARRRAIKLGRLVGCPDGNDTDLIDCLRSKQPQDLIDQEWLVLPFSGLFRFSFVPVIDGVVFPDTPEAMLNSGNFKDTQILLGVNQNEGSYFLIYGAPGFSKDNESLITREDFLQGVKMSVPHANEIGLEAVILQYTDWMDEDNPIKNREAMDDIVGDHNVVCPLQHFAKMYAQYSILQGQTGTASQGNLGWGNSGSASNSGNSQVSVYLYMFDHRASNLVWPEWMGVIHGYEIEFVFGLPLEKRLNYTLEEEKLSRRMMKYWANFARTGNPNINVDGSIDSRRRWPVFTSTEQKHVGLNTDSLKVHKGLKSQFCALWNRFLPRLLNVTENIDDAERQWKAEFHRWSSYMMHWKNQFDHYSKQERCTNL
T3 sequence (P81908 whole entry): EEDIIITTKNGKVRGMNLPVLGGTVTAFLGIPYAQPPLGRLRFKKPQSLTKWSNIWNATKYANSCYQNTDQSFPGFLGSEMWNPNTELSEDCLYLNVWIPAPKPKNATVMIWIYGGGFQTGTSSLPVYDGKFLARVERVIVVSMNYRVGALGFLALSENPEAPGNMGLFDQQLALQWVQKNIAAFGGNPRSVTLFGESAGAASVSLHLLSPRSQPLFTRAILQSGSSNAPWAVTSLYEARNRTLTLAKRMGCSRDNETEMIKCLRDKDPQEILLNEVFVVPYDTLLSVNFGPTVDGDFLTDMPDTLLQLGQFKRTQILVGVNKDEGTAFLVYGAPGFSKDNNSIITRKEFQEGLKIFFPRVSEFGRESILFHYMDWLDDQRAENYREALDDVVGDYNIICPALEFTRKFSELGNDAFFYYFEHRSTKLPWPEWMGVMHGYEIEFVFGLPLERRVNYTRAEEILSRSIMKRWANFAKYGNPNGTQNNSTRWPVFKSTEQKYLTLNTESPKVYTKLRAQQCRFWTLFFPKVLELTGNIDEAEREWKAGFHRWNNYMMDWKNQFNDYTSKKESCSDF

Cc1cc(=O)oc2cc(OCC3=NOC(Cn4cnc5c(N6CCOCC6)ncnc54)C3)ccc12 (stereo not drawn) [11f]
LP % @ 100μΜ (inhibition of lipid peroxidation) [1]: 48% | MAO-A (%) @ 10μΜ (rat monoamine oxidase A): 16% | inhibition at 10 µM [2]: 43% | inhibition at 10 µM [3]: 14% | %LOX @ 100μΜ (soybean lipoxygenase): no | MAO-B (%) @ 10μΜ (rat monoamine oxidase B): 8%

Cc1cc(=O)oc2ccc(OCc3cc(Cn4cnc5c(N6CCCCC6)ncnc54)no3)cc12 [13a, 4-methyl-6-({3-[(6-piperidin-1-yl-9H-purin-9-yl)methyl]isoxazol-5-yl}methoxy)-2H-chromen-2-one]
MAO-A (%) @ 10μΜ (rat monoamine oxidase A): 47% | RA% @ 100μΜ (reducing activity, DPPH) [4]: no | inhibition at 10 µM [2]: 40% | inhibition at 10 µM [3]: 23% | %LOX @ 100μΜ (soybean lipoxygenase): no | MAO-B (%) @ 10μΜ (rat monoamine oxidase B): 33%

Cc1cc(=O)oc2ccc(OCc3cc(Cn4cnc5c(N6CCOCC6)ncnc54)no3)cc12 [13b]
MAO-A (%) @ 10μΜ (rat monoamine oxidase A): 12% | RA% @ 100μΜ (reducing activity, DPPH) [4]: no | IC50 [2]: 3.1 µM | inhibition at 10 µM [3]: 13% | inhibition at 100 µM (soybean lipoxygenase; read-out: %LOX @ 100μΜ): 44% | MAO-B (%) @ 10μΜ (rat monoamine oxidase B): no

O=c1ccc2ccc(OCc3cc(Cn4cnc5c(N6CCCCC6)ncnc54)no3)cc2o1 [13e]
MAO-A (%) @ 10μΜ (rat monoamine oxidase A): 18% | RA% @ 100μΜ (reducing activity, DPPH) [4]: no | IC50 [2]: 1.73 µM | IC50 ([3]; read-out: esBChE IC50 μΜ): 18 µM | IC50 (soybean lipoxygenase; read-out: LOX IC50 μΜ): 62.5 µM and 62 µM | MAO-B (%) @ 10μΜ (rat monoamine oxidase B): 15%
